Results: patent publication US11453647B2, “Benzimidazole derivatives as adenosine receptor antagonists” (Merck Patent GmbH, priority 2017, dated 2022)

Assays:
Format in all cases: cell-based
[1] = molecular target: T1, human A2A receptor (Homo sapiens, UniProt P29274); test: functional cAMP (HTRF) assay, recombinant HEK293 cells expressing human A2A receptor, agonist NECA
T1 construct: expressed in transfected cells; host or cells: HEK293

[2] = molecular target: T2, human A3 receptor (Homo sapiens, UniProt P0DMS8); test: functional cAMP (HTRF) assay, recombinant CHO cells expressing human A3 receptor, forskolin, agonist IB-MECA
T2 construct: expressed in transfected cells; host or cells: CHO
T2 sequence (P0DMS8 1-318): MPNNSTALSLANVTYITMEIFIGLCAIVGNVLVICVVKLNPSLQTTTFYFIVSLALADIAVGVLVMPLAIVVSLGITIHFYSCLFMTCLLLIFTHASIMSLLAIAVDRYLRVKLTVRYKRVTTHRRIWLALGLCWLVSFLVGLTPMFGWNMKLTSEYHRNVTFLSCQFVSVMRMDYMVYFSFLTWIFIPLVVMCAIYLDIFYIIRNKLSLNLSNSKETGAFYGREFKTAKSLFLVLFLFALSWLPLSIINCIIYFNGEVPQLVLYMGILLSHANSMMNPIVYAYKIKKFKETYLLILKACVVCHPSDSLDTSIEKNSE
Outline: (§1)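 Gi-coupled readout: CHO cells expressing human A1 or A3 receptor were treated with forskolin, test compound and agonist (CPA for A1, IB-MECA for A3) for 30 min; cellular cAMP was then measured by HTRF. Data were normalized to inhibitor and DMSO controls and curve-fitted.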

[3] = molecular target: T3, A2B receptors (Homo sapiens, UniProt P29275); test: functional cAMP (HTRF) assay, recombinant HEK293 cells expressing human A2B receptor, agonist NECA; parameters: expressed in transfected cells; host or cells: HEK293
T3 sequence (P29275 1-332): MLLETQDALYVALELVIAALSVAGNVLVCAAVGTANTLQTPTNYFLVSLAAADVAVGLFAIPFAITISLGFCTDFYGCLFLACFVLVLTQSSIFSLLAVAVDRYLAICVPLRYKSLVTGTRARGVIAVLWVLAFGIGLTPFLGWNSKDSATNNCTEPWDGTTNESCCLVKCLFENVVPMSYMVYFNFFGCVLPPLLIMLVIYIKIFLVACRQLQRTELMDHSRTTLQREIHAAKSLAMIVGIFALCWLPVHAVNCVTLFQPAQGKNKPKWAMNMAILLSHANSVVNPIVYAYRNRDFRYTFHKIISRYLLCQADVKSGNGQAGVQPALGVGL

[4] = molecular target: T4, human A1 receptor (Homo sapiens, UniProt P30542); test: functional cAMP (HTRF) assay, recombinant CHO cells expressing human A1 receptor, forskolin, agonist CPA
T4 construct: expressed in transfected cells; host or cells: CHO
T4 sequence (P30542 1-326): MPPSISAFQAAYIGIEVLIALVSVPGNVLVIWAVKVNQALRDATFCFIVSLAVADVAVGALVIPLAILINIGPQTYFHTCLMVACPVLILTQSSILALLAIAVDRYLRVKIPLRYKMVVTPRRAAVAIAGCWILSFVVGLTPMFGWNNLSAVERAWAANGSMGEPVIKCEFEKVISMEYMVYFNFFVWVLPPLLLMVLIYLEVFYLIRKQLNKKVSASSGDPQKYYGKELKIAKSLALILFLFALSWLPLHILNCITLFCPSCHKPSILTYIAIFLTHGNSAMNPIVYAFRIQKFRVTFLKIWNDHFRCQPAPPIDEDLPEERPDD
Outline: as §1

T1 sequence (P29274 whole entry): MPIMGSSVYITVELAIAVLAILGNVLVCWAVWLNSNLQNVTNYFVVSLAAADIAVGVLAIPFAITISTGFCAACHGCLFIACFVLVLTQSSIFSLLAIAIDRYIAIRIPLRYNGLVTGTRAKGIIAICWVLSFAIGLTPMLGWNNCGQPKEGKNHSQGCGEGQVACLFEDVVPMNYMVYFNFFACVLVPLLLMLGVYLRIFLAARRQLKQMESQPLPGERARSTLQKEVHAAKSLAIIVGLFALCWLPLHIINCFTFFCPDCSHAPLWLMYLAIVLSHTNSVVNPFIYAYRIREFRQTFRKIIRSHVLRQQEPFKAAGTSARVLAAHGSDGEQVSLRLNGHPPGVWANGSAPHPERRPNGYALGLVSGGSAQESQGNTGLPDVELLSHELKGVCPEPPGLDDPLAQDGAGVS

SMILES | IC50 [1] | IC50 [2] | IC50 [3] | IC50 [4]
COc1ccc(-c2cnn(C3CCN(C(=O)OC(C)(C)C)CC3)c2)c2[nH]c(NC(=O)N3CCC(C)(O)CC3)nc12 [compound 145, tert-butyl 4-(4-{2-[(4-hydroxy-4-methylpiperidine-1-carbonyl)amino]-4-methoxy-1H-1,3-benzodiazol-7-yl}-1H-pyrazol-1-yl)piperidine-1-carboxylate] | < 10 nM | > 1000 nM | > 1000 nM | > 1000 nM
COc1ccc(-c2cnn(C)c2)c2[nH]c(NC(=O)c3cnn(C)c3)nc12 [compound 160, N-[7-methoxy-4-(1-methyl-1H-pyrazol-4-yl)-1H-1,3-benzodiazol-2-yl]-1-methyl-1H-pyrazole-4-carboxamide] | < 10 nM | < 100 nM | < 100 nM | > 1000 nM
COc1ccc(-c2cnn(C)c2)c2nc(NC(=O)c3ccon3)[nH]c12 [compound 84, N-[7-methoxy-4-(1-methyl-1H-pyrazol-4-yl)-1H-1,3-benzodiazol-2-yl]-1,2-oxazole-3-carboxamide] | < 100 nM | < 1000 nM | < 1000 nM | < 1000 nM
COc1cc(F)c(C2=CCOCC2)c2nc(NC(=O)c3cnn(C)c3)[nH]c12 [compound 264, N-[4-(3,6-dihydro-2H-pyran-4-yl)-5-fluoro-7-methoxy-1H-1,3-benzodiazol-2-yl]-1-methyl-1H-pyrazole-4-carboxamide] | < 10 nM | < 1000 nM | < 100 nM | > 1000 nM
COCCOc1cccc(-c2ccc(OC)c3nc(NC(=O)N4CCC(C)(O)CC4)[nH]c23)c1 [compound 236, 4-hydroxy-N-{4-methoxy-7-[3-(2-methoxyethoxy)phenyl]-1H-1,3-benzodiazol-2-yl}-4-methylpiperidine-1-carboxamide] | < 10 nM | < 1000 nM | < 100 nM | < 1000 nM
COc1ccc(-c2cnn(C)c2)c2nc(NC(=O)c3ccnc(N4CCC(C)(O)CC4)c3)[nH]c12 [compound 105] | < 10 nM | < 1000 nM | < 1000 nM | > 1000 nM
COc1ccc(-c2ccccc2F)c2nc(NC(=O)N3CCC(C)(O)CC3)[nH]c12 [compound 218, N-[4-(2-fluorophenyl)-7-methoxy-1H-1,3-benzodiazol-2-yl]-4-hydroxy-4-methylpiperidine-1-carboxamide] | < 10 nM | > 1000 nM | < 100 nM | < 1000 nM
COc1ccc(-c2ccncc2)c2nc(NC(=O)N3CCC4(COC4)C3)[nH]c12 [compound 85, N-[7-methoxy-4-(pyridin-4-yl)-1H-1,3-benzodiazol-2-yl]-2-oxa-6-azaspiro[3.4]octane-6-carboxamide] | < 100 nM | > 1000 nM | < 1000 nM | > 1000 nM
COc1ccc(-c2cnn(C)c2)c2nc(NC(=O)N3CC[C@H](F)C3)[nH]c12 [compound 221, (3S)-3-fluoro-N-[7-methoxy-4-(1-methyl-1H-pyrazol-4-yl)-1H-1,3-benzodiazol-2-yl]pyrrolidine-1-carboxamide] | < 10 nM | > 1000 nM | < 100 nM | > 1000 nM
COc1ccc(-c2cnn(C)c2)c2nc(NC(=O)c3ccnc(Br)c3)[nH]c12 [compound 95, 2-bromo-N-[7-methoxy-4-(1-methyl-1H-pyrazol-4-yl)-1H-1,3-benzodiazol-2-yl]pyridine-4-carboxamide] | < 10 nM | < 10 nM | < 1000 nM | < 1000 nM
COc1ccc(-c2cccc(F)c2)c2[nH]c(NC(=O)c3c[nH]cn3)nc12 [compound 265, N-[7-(3-fluorophenyl)-4-methoxy-1H-1,3-benzodiazol-2-yl]-1H-imidazole-4-carboxamide] | < 10 nM | < 1000 nM | < 100 nM | < 1000 nM
COc1ccc(-c2cnn(C)c2)c2nc(NC(=O)N3CCC(Oc4ccccc4)CC3)[nH]c12 [compound 54, N-[7-methoxy-4-(1-methyl-1H-pyrazol-4-yl)-1H-1,3-benzodiazol-2-yl]-4-phenoxypiperidine-1-carboxamide] | < 100 nM | > 1000 nM | < 1000 nM | < 1000 nM
COc1ccc(-c2ccccc2)c2nc(NC(=O)c3c[nH]c(C)n3)[nH]c12 [compound 255, N-(7-methoxy-4-phenyl-1H-1,3-benzodiazol-2-yl)-2-methyl-1H-imidazole-4-carboxamide] | < 10 nM | < 1000 nM | < 10 nM | < 1000 nM

Further lines, results first:

IC50 [1] | IC50 [2] | IC50 [3] | IC50 [4] | SMILES
< 10 nM | > 1000 nM | < 1000 nM | < 1000 nM | COc1ccc(-c2ccc(F)cc2)c2nc(NC(=O)N3CCC(C)(O)CC3)[nH]c12 [compound 144, N-[4-(4-fluorophenyl)-7-methoxy-1H-1,3-benzodiazol-2-yl]-4-hydroxy-4-methylpiperidine-1-carboxamide]
< 10 nM | > 1000 nM | > 1000 nM | > 1000 nM | COc1ccc(-c2cnn(C)c2)c2nc(NC(=O)c3ccc(CN(C)C)cc3)[nH]c12 [compound 48, 4-[(dimethylamino)methyl]-N-[7-methoxy-4-(1-methyl-1H-pyrazol-4-yl)-1H-1,3-benzodiazol-2-yl]benzamide]
< 10 nM | < 1000 nM | > 1000 nM | > 1000 nM | COc1ccc(-c2cnn(C)c2)c2nc(NC(=O)c3ccnc(N4CCOCC4)c3)[nH]c12 [compound 26, N-[7-Methoxy-4-(1-methyl-1H-pyrazol-4-yl)-1H-benzoimidazol-2-yl]-2-morpholin-4-yl-isonicotinamide]
< 100 nM | > 1000 nM | < 100 nM | > 1000 nM | COc1ccc(-c2ccccc2)c2nc(NC(=O)c3ccc(C(=O)N(C)C)cn3)[nH]c12 [compound 284, N2-(7-methoxy-4-phenyl-1H-1,3-benzodiazol-2-yl)-N5,N5-dimethylpyridine-2,5-dicarboxamide]
< 100 nM | > 1000 nM | < 1000 nM | > 1000 nM | COc1ccc(-c2cnn(C)c2)c2nc(NC(=O)c3ccc(C(=O)N(C)C)nc3)[nH]c12 [compound 162, N5-[7-methoxy-4-(1-methyl-1H-pyrazol-4-yl)-1H-1,3-benzodiazo1-2-yl]-N2,N2-dimethylpyridine-2,5-dicarboxamide]
< 10 nM | < 100 nM | < 1000 nM | > 1000 nM | COc1ccc(-c2ccccc2)c2nc(NC(=O)c3ccnc(N4CCOCC4)c3)[nH]c12 [compound 7, N-(7-Methoxy-4-phenyl-1H-benzoimidazol-2-yl)-2-morpholin-4-yl-isonicotinamide]
< 10 nM | < 1000 nM | < 10 nM | < 1000 nM | COc1ccc(-c2ccccc2F)c2nc(NC(=O)c3ccc(C(=O)N(C)C)cc3)[nH]c12 [compound 242, N4-[4-(2-fluorophenyl)-7-methoxy-1H-1,3-benzodiazol-2-yl]-N1,N1-dimethylbenzene-1,4-dicarboxamide]
< 10 nM | > 1000 nM | > 1000 nM | > 1000 nM | COc1ccc(C2CCOCC2)c2nc(NC(=O)c3ccc(CN(C)C)cc3)[nH]c12 [compound 88, 4-[(dimethylamino)methyl]-N-[7-methoxy-4-(oxan-4-yl)-1H-1,3-benzodiazol-2-yl]benzamide]
< 10 nM | > 1000 nM | > 1000 nM | > 1000 nM | COc1ccc(C2CCOCC2)c2nc(NC(=O)N3CC[C@@]4(CCOC4)C3)[nH]c12 [compound 150, (5R)-N-[7-methoxy-4-(oxan-4-yl)-1H-1,3-benzodiazol-2-yl]-2-oxa-7-azaspiro[4.4]nonane-7-carboxamide]
< 100 nM | < 1000 nM | < 1000 nM | > 1000 nM | COc1ccc(-c2cnn(C)c2)c2nc(NC(=O)c3ccc4occc4c3)[nH]c12 [compound 80, N-[7-methoxy-4-(1-methyl-1H-pyrazol-4-yl)-1H-1,3-benzodiazol-2-yl]-1-benzofuran-5-carboxamide]
